Results on eight compounds are retold here after article PMC12701685, “Support Vector Machine Identification of Small Molecule Binders to an Understudied Allosteric Site of SARS‐CoV‐2 Mpro for Next‐Generation PROTAC‐Based Therapeutics” (Archiv Der Pharmazie, 2025).

What is called EC50 is the concentration giving half of the maximal effect. For orientation: IC50 means the point on the concentration scale where inhibition reaches its midpoint.

The test system of assay [1] is SARS‐CoV‐2 replication in Vero E6 cells. The note with it: cited from earlier work.
A further assay deals with infected cells. The note with it: cited from earlier work.
For assay [2], the target named is T1, SARS‐CoV‐2 Mpro (Severe acute respiratory syndrome coronavirus 2, UniProt P0DTD1). The note with it: non‐covalent inhibitors; cited from earlier work.
Assay [3] addresses T1, SARS‐CoV‐2 Mpro. Briefly: Microscale thermophoresis (MST) binding check and binding affinity. Conditions: for RA (Response Amplitude): MST binding affinity experiment, RA ≥ 1.5 indicative of binding; for Kd: MST, labeled Mpro 35 nM, 16 1:1 serial dilutions, two independent experiments, read-out: K d ± K d confidence. In general terms: In MST a laser heats a spot of the sample, and binding alters the fluorescence response.

The target of assay [4] is T1, SARS‐CoV‐2 Mpro. Put plainly: FRET peptide substrate enzymatic assay. Format: biochemical. Conditions: compound 20 µM; for remaining activity at 20 µM: enzyme 75 nM, substrate 25 µM, read-out: Residual activity (%). The protocol: The three compounds identified as binders in the MST assay were tested for their inhibitory properties against SARS‐CoV‐2 Mpro at a 20 µM concentration (see Section 4 for details).
Inhibitory activities of the compounds against SARS‐CoV‐2 Mpro were determined as described previously by cleavage of a fluorescence resonance energy transfer (FRET) peptide substrate (Dabcyl‐[…]‐Edans), purchased from Genescript (New Jersey, USA).
Fluorescence measurements were carried out in white flat‐bottom 96‐well plates (Greiner Bio‐One, Kremsmünster, Upper Austria) using a Tecan Spark 10M plate reader (Tecan Group Ltd., Männedorf, Switzerland). Each well contained a final volume of 200 µL, consisting of 180 µL assay buffer (20 mM TRIS‐HCl pH 7.5, 20 mM NaCl, 0.1 mM EDTA, 1 mM DTT), 5 µL enzyme solution (final concentration 75 nM), 10 µL inhibitor in DMSO (final concentration 20 µM) or pure DMSO as a negative control, and 5 µL substrate solution in DMSO (final concentration 25 µM). The reaction was monitored for 10 min at 25°C, with fluorescence readings taken at 30‐s intervals. The substrate was excited at 335 nm, and fluorescence emission was recorded at 493 nm. The remaining enzymatic activity was determined by comparing the substrate hydrolysis rate in reaction mixtures containing the inhibitors to that of the DMSO control. Only the first 5 min of the fluorescence curves (Supporting Information S1: Figure S3) were used for the calculation to obtain the linear part.

A further assay concerns SARS-CoV-1. The note with it: cited from earlier work.
In assay [5] the test system is virus‐infected VeroE6 cells. The note with it: plaque reduction; cited from earlier work.
Assay [6] relates to virus‐infected VeroE6 cells. Conditions: cytopathic effect (CPE) inhibition; cited from earlier work. On the technique in general: Damage to the host cells serves as the signal in cytopathic effect assays.

Like-named read-outs stand apart in the source and are kept apart here.

With `O=C(NC1CCNCC1)c1n[nH]cc1NC(=O)c1c(Cl)cccc1Cl` [AT7519, N‐(4‐piperidinyl)‐4‐(2,6‐dichlorobenzoylamino)‐1H‐ Pyrazole‐3‐Carboxamide], the EC50 in assay [1] was 25.2 µM.
As to `O=C(NCc1cccs1)[C@@H]1CN(C(=O)c2cccnc2)CCN1c1ccc(Cl)c(Cl)c1` [compound 51], the EC50 with infected cells was approximately 1.1 µM. For the same compound, on SARS‐CoV‐2 Mpro [2], the IC50 is approximately 0.4 µM.
For the compound `Cc1cc2ncn(S(=O)(=O)c3ccc(S(N)(=O)=O)cc3)c2cc1C` [compound 9], at SARS‐CoV‐2 Mpro [3], the “RA (Response Amplitude)” value was found to be 2.7 and the Kd stood at 39 ± 23.4 µM. Besides, at SARS‐CoV‐2 Mpro [4], the “Effect on enzyme activity (in words)” value is “no effect on the catalytic activity” and the remaining activity at 20 µM was 106%.
As for `O=C(c1c[nH]c(=O)[nH]c1=O)N1CCN(c2ccc(Cl)c(Cl)c2)CC1` [compound 23], the IC50 on SARS‐CoV‐2 Mpro [2] was 5.1 ± 0.63 µM.
As for `CCC(C)(C)NC(=O)[C@@H](c1ccn(C)c1)N(C(=O)Cn1nnc2ccccc21)c1ccc(NC(C)=O)cc1` [compound 42], in the assay with SARS-CoV-1, the IC50 is 6.2 µM.
As to `CCOc1cccc(-c2nn3c(-c4cccnc4)nnc3s2)c1` [compound 8], at SARS‐CoV‐2 Mpro [3], the “RA (Response Amplitude)” value came out at 4.7 and the Kd came to 23.9 ± 7.4 µM. In addition, on SARS‐CoV‐2 Mpro [4], the “Effect on enzyme activity (in words)” value is “no effect on the catalytic activity” and the remaining activity at 20 µM came out at 101%.
As to `Cc1ccc(C(=O)NCCCNC(=O)c2ccccn2)cc1C` [compound 7], on SARS‐CoV‐2 Mpro [3], the “RA (Response Amplitude)” value is 3.4 and the Kd worked out at 2.8 ± 0.9 µM. At SARS‐CoV‐2 Mpro [4], the “Effect on enzyme activity (in words)” value was “no effect on the catalytic activity” and the remaining activity at 20 µM is 105%.
Regarding `O=C(Cn1nnc2ccccc21)N(Cc1cccc(Cl)c1)c1ccc(-c2c[nH]cn2)cc1` [compound 47], the figures for the EC50 in assay [5] and in assay [6] were 0.56 µM and 0.5 µM, respectively.
